Measurements reported in the NIST ThermoML archive (doi:10.1016/j.tca.2007.04.007).
Numbers after ± are expanded uncertainties.

Test: molar heat capacity at constant pressure
Settings: 101.33 kPa, Crystal, Large sample (1 g) DSC

C[C@@H]1CC[C@H]2[C@@H](C)C(=O)O[C@@H]3O[C@@]4(C)CC[C@@H]1[C@]32OO4 [artemisinin]
Settings | molar heat capacity at constant pressure [J/K/mol]
80.88 K | 106.29 ± 1.6
84.39 K | 107.4 ± 1.7
87.31 K | 111.29 ± 1.7
90.28 K | 115.11 ± 1.8
93.15 K | 118.77 ± 1.8
96.08 K | 122.29 ± 1.9
99.06 K | 126.22 ± 2
101.96 K | 129.96 ± 2
104.91 K | 133.57 ± 2.1
107.91 K | 137.36 ± 2.1
110.85 K | 141.04 ± 2.2
113.72 K | 144.58 ± 2.2
116.65 K | 147.72 ± 2.3
119.63 K | 151.4 ± 2.3
122.57 K | 154.67 ± 2.4
125.44 K | 158.04 ± 2.4
128.38 K | 161.18 ± 2.5
131.37 K | 164.32 ± 2.5
134.31 K | 167.29 ± 2.6
137.21 K | 170.2 ± 2.6
140.06 K | 173.58 ± 2.7
142.85 K | 175.98 ± 2.7
145.7 K | 178.74 ± 2.8
148.61 K | 181.39 ± 2.8
151.48 K | 184.15 ± 2.9
154.31 K | 188.26 ± 2.9
157.09 K | 189.51 ± 2.9
159.85 K | 190.78 ± 3
162.66 K | 193.14 ± 3
165.54 K | 194.65 ± 3
168.38 K | 196.91 ± 3
171.2 K | 197.84 ± 3.1
173.98 K | 199.03 ± 3.1
176.74 K | 201.03 ± 3.1
179.47 K | 203.22 ± 3.1
182.17 K | 204.81 ± 3.2
184.93 K | 207.17 ± 3.2
187.75 K | 209.02 ± 3.2
190.54 K | 210.2 ± 3.3
193.3 K | 211.69 ± 3.3
196.04 K | 214.53 ± 3.3
198.78 K | 218.09 ± 3.4
201.49 K | 234.61 ± 3.6
204.35 K | 248.75 ± 3.9
207.26 K | 254.52 ± 3.9
210.15 K | 259.16 ± 4
213.03 K | 263.67 ± 4.1
215.98 K | 268.33 ± 4.2
218.98 K | 272.61 ± 4.2
221.97 K | 277.47 ± 4.3
224.93 K | 283.14 ± 4.4
227.86 K | 300.11 ± 4.7
230.9 K | 305.21 ± 4.7
234.15 K | 304.08 ± 4.7
237.2 K | 300.49 ± 4.7
240.2 K | 312.96 ± 4.8
243.25 K | 303.71 ± 4.7
246.2 K | 290.19 ± 4.5
249.15 K | 291.35 ± 4.5
252.08 K | 292.72 ± 4.5
254.99 K | 294.78 ± 4.6
257.88 K | 295.87 ± 4.6
260.75 K | 297.43 ± 4.6
263.6 K | 299.57 ± 4.6
266.43 K | 301.66 ± 4.7
269.3 K | 304.16 ± 4.7
272.21 K | 307.87 ± 4.8
275.11 K | 309.22 ± 4.8
278.48 K | 312.58 ± 4.8
282.32 K | 315.57 ± 4.9
286.12 K | 318.4 ± 4.9
289.88 K | 323.79 ± 5
293.71 K | 327.62 ± 5.1
297.59 K | 331.62 ± 5.1
301.45 K | 336.33 ± 5.2
305.28 K | 339.95 ± 5.3
309.08 K | 344.57 ± 5.3
312.86 K | 351.73 ± 5.4
316.64 K | 334.75 ± 5.2
320.44 K | 337.71 ± 5.2
324.16 K | 338.79 ± 5.2
327.84 K | 344.42 ± 5.3
331.58 K | 356.39 ± 5.5
335.37 K | 360.69 ± 5.6
339.11 K | 368.06 ± 5.7
342.41 K | 376.18 ± 5.8
345.26 K | 376.26 ± 5.8
348.11 K | 388.36 ± 6
350.96 K | 394.39 ± 6.1
353.85 K | 397.54 ± 6.2
356.81 K | 403.86 ± 6.3
359.88 K | 413.08 ± 6.4
363.03 K | 429.5 ± 6.7
